Reference: US5593985A, “Cephalosporin compounds” (priority 1994, dated 1997)
In brackets after ≈: the same amount, converted by molar mass. Read-outs that look alike come from different tables or passages of the source.

Columns and labels:
Assay type in all cases: cell-based
[1] = test system: Streptococcus pyogenes A 308; experiment: MIC, standard strain 1; conditions: read-out: Minimal Inhibitory Concentration(MIC)
Protocol: (§1) In order to illustrate antibiotic effectiveness of the compounds of the present invention, the minimal inhibitory concentrations (MIC's) of the representative compounds were determined against standard strains and compared with ceftazidime and cefpirome, which were used as control compounds.
(§2) The MIC values were taken by employing a two-fold dilution method: that is, two-fold serial dilutions of each of the test compounds were made from initial concentration of […]; each 1.5 ml of them was dispersed in 13.5 ml of Muller Hinton agar medium to adjust to […]; the standard test strain which had the concentration of 10^7 CFU/ml was inoculated by medium;and these were incubated at 37° C. for 18 hours.
(§3) The test used twenty kinds of standard test strains which induced urinary tract infections, respiratory organ infections, skin soft tissue infections, plasma infections, gastrointestinal infections, central nervous system infections, most of which produce β-lactamase. The standard test strains used are as follows:
1. Streptococcus pyogenes A 308

[2] = test system: Streptococcus pyogenes A 77; experiment: MIC, standard strain 2; conditions: A77, S. pyogenes A 77, two-fold dilution, Muller Hinton agar, 10^7 CFU/ml, 37° C., 18 hours, read-out: Minimal Inhibitory Concentration(MIC)
Protocol: as §1, §2, §3
2. Streptococcus pyogenes A 77

Streptococcus faecium 8b = experiment: MIC, standard strain 3; conditions: Enterococcus faecium, read-out: Minimal Inhibitory Concentration(MIC)
Protocol: as §1, §2, §3
3. Streptococcus faecium 8b

[3] = test system: Staphylococcus aureus SG 511; experiment: MIC, standard strain 4; conditions: SG511, S. aureus SG 511, two-fold dilution, Muller Hinton agar, 10^7 CFU/ml, 37° C., 18 hours, read-out: Minimal Inhibitory Concentration(MIC)
Protocol: as §1, §2, §3
4. Staphylococcus aureus SG 511

[4] = test system: Staphylococcus aureus 285; experiment: MIC, standard strain 5; conditions: read-out: Minimal Inhibitory Concentration(MIC)
Protocol: as §1, §2, §3
5. Staphylococcus aureus 285

[5] = test system: Staphylococcus aureus 503; experiment: MIC, standard strain 6; conditions: read-out: Minimal Inhibitory Concentration(MIC)
Protocol: as §1, §2, §3
6. Staphylococcus aureus 503

Escherichia coli 0 55 = experiment: MIC, standard strain 7; conditions: 055, E. coli 0 55, two-fold dilution, Muller Hinton agar, 10^7 CFU/ml, 37° C., 18 hours, read-out: Minimal Inhibitory Concentration(MIC)
Protocol: as §1, §2
(§4) The test used twenty kinds of standard test strains which induced urinary tract infections, respiratory organ infections, skin soft tissue infections, plasma infections, gastrointestinal infections, central nervous system infections, most of which produce β-lactamase.

Escherichia coli DC 0 = experiment: MIC, standard strain 8; conditions: DC0, E. coli DC 0, two-fold dilution, Muller Hinton agar, 10^7 CFU/ml, 37° C., 18 hours, read-out: Minimal Inhibitory Concentration(MIC)
Protocol: as §1, §2, §4

Escherichia coli DC 2 = experiment: MIC, standard strain 9; conditions: DC2, E. coli DC 2, two-fold dilution, Muller Hinton agar, 10^7 CFU/ml, 37° C., 18 hours, read-out: Minimal Inhibitory Concentration(MIC)
Protocol: as §1, §2, §4

Escherichia coli TEM = experiment: MIC, standard strain 10; conditions: 18 h, read-out: Minimal Inhibitory Concentration(MIC)
Protocol: as §1, §2, §4

Escherichia coli 1507 E = experiment: MIC, standard strain 11; conditions: E. coli 1507 E, two-fold dilution, Muller Hinton agar, 10^7 CFU/ml, 37° C., 18 hours, read-out: Minimal Inhibitory Concentration(MIC)
Protocol: as §1, §2, §4

[6] = test system: Pseudomonas aeruginosa 9.027; experiment: MIC, standard strain 12; conditions: Pseudomonas aeruginosa; P. aeruginosa 9.027; two-fold dilution, Muller Hinton agar, 10^7 CFU/ml, 37° C., 18 hours; read-out: Minimal Inhibitory Concentration(MIC)
Protocol: as §1, §2, §3
12. Pseudomonas aeruginosa 9.027

[7] = test system: Pseudomonas aeruginosa 1592 E; experiment: MIC, standard strain 13; conditions: P. aeruginosa 1592 E, two-fold dilution, Muller Hinton agar, 10^7 CFU/ml, 37° C., 18 hours, read-out: Minimal Inhibitory Concentration(MIC)
Protocol: as §1, §2, §3
13. Pseudomonas aeruginosa 1592 E

[8] = test system: Pseudomonas aeruginosa 1771; experiment: MIC, standard strain 14; conditions: Pseudomonas aeruginosa; P. aeruginosa 1771; two-fold dilution, Muller Hinton agar, 10^7 CFU/ml, 37° C., 18 hours; read-out: Minimal Inhibitory Concentration(MIC)
Protocol: as §1, §2, §3
14. Pseudomonas aeruginosa 1771

[9] = test system: Pseudomonas aeruginosa 1771M; experiment: MIC, standard strain 15; conditions: 18 h, read-out: Minimal Inhibitory Concentration(MIC)
Protocol: as §1, §2, §3
15. Pseudomonas aeruginosa 1771M

Salmonella typhimurium = experiment: MIC, standard strain 16; conditions: Salmonella enterica; S. typhimurium; two-fold dilution, Muller Hinton agar, 10^7 CFU/ml, 37° C., 18 hours; read-out: Minimal Inhibitory Concentration(MIC)
Protocol: as §1, §2, §3
16. Salmonella typhimurium

[10] = test system: Klebsiella aerogenes 1552 E; experiment: MIC, standard strain 18; conditions: K. aerogenes 1552 E, two-fold dilution, Muller Hinton agar, 10^7 CFU/ml, 37° C., 18 hours, read-out: Minimal Inhibitory Concentration(MIC)
Protocol: as §1, §2, §3
18. Klebsiella aerogenes 1552 E

[11] = test system: Enterobacter cloacae P 99; experiment: MIC, standard strain 19; conditions: P99, 18 h, read-out: Minimal Inhibitory Concentration(MIC)
Protocol: as §1, §2, §3
19. Enterobacter cloacae P 99

[12] = test system: Enterobacter cloacae 1321 E; experiment: MIC, standard strain 20; conditions: read-out: Minimal Inhibitory Concentration(MIC)
Protocol: as §1, §2, §3
20. Enterobacter cloacae 1321 E

[13] = S. faecium 8b, two-fold dilution, Muller Hinton agar, 10^7 CFU/ml, 37° C., 18 hours
[14] = Staphylococcus aureus, S. aureus 503, two-fold dilution, Muller Hinton agar, 10^7 CFU/ml, 37° C., 18 hours
[15] = E. cloacae 1321 E, two-fold dilution, Muller Hinton agar, 10^7 CFU/ml, 37° C., 18 hours
[16] = A308, S. pyogenes A 308, two-fold dilution, Muller Hinton agar, 10^7 CFU/ml, 37° C., 18 hours
[17] = Staphylococcus aureus, S. aureus 285, two-fold dilution, Muller Hinton agar, 10^7 CFU/ml, 37° C., 18 hours

Compound	MIC ([1]; A308, 18 h) [µg/mL]	MIC [2] [µg/mL]	MIC (Streptococcus faecium 8b; [13]) [µg/mL]	MIC [3] [µg/mL]	MIC [5, 14] [µg/mL]	MIC (Escherichia coli 0 55) [µg/mL]	MIC (Escherichia coli DC 0) [µg/mL]	MIC (Escherichia coli DC 2) [µg/mL]	MIC (Escherichia coli TEM) [µg/mL]	MIC (Escherichia coli 1507 E) [µg/mL]	MIC [6] [µg/mL]	MIC [7] [µg/mL]	MIC [8] [µg/mL]	MIC [9] [µg/mL]	MIC (Salmonella typhimurium) [µg/mL]	MIC [10] [µg/mL]	MIC [11] [µg/mL]	MIC [12, 15] [µg/mL]	MIC [1, 16] [µg/mL]	MIC [4, 17] [µg/mL]	other results
CCOC(=O)c1cc[n+](CC2=C(C(=O)[O-])N3C(=O)[C@@H](NC(=O)/C(=N\OC)c4csc(N)n4)[C@H]3SC2)c2c1CCC2 [Example 1]	7 (≈ 11.9 µM)	7 (≈ 11.9 µM)	25000 (≈ 42600 µM)	1560 (≈ 2660 µM)	781 (≈ 1330 µM)	49 (≈ 83.5 µM)	49 (≈ 83.5 µM)	25 (≈ 42.6 µM)	391 (≈ 666 µM)	49 (≈ 83.5 µM)	12500 (≈ 21300 µM)	12500 (≈ 21300 µM)	6250 (≈ 10700 µM)	391 (≈ 666 µM)	49 (≈ 83.5 µM)	49 (≈ 83.5 µM)	25000 (≈ 42600 µM)	25 (≈ 42.6 µM)			MIC ([4]; Staphylococcus aureus, 285, 18 h): 3120 µg/mL (≈ 5330 µM)
CO/N=C(\C(=O)N[C@@H]1C(=O)N2C(C(=O)[O-])=C(C[n+]3ccc(C(=O)O)c4c3CCC4)CS[C@H]12)c1csc(N)n1 [Example 2]		7 (≈ 12.5 µM)	25000 (≈ 44800 µM)	6250 (≈ 11200 µM)	3120 (≈ 5590 µM)	25 (≈ 44.8 µM)	49 (≈ 87.7 µM)	49 (≈ 87.7 µM)	781 (≈ 1400 µM)	25 (≈ 44.8 µM)	12500 (≈ 22400 µM)	12500 (≈ 22400 µM)	3120 (≈ 5590 µM)	391 (≈ 700 µM)	49 (≈ 87.7 µM)	25 (≈ 44.8 µM)	100000 (≈ 179000 µM)	25 (≈ 44.8 µM)	25 (≈ 44.8 µM)	6250 (≈ 11200 µM)	
CCO/N=C(\C(=O)N[C@@H]1C(=O)N2C(C(=O)[O-])=C(C[n+]3ccc(C(N)=O)c4c3CCC4)CS[C@H]12)c1csc(N)n1 [Example 13, 7-β-[(Z)-2-(2-aminothiazol-4-yl)-2-ethoxyiminoacetamido]-3-[(2,3-cyclopenteno-4-carbamoyl-1-pyridinium)methyl]-3-cephem-4-carboxylate]	13 (≈ 22.7 µM)	4 (≈ 7 µM)	50000 (≈ 87500 µM)	781 (≈ 1370 µM)	391 (≈ 684 µM)	25 (≈ 43.7 µM)	98 (≈ 171 µM)	49 (≈ 85.7 µM)	195 (≈ 341 µM)	98 (≈ 171 µM)	6250 (≈ 10900 µM)	3120 (≈ 5470 µM)	1560 (≈ 2730 µM)	195 (≈ 341 µM)	49 (≈ 85.7 µM)	49 (≈ 85.7 µM)	12500 (≈ 21900 µM)	25 (≈ 43.7 µM)		3120 (≈ 5470 µM)	
NC(=O)c1cc[n+](CC2=C(C(=O)[O-])N3C(=O)[C@@H](NC(=O)/C(=N\OCCF)c4csc(N)n4)[C@H]3SC2)c2c1CCC2 [Example 14, 7-β-[(Z)-2-(2-aminothiazol-4-yl)-2-(2-fluoroethoxyimino)acetamido]-3-[(2,3-cyclopenteno-4-carbamoyl-l-pyridinium)methyl]-3-cephem-4-carboxylate]		13 (≈ 22 µM)	25000 (≈ 42400 µM)	781 (≈ 1320 µM)	781 (≈ 1320 µM)	13 (≈ 22 µM)	49 (≈ 83.1 µM)	49 (≈ 83.1 µM)	98 (≈ 166 µM)	49 (≈ 83.1 µM)	6250 (≈ 10600 µM)	6250 (≈ 10600 µM)	781 (≈ 1320 µM)	391 (≈ 663 µM)	49 (≈ 83.1 µM)	49 (≈ 83.1 µM)	12500 (≈ 21200 µM)		13 (≈ 22 µM)	3120 (≈ 5300 µM)	MIC ([12]; 1321E, 18 h): 25 µg/mL (≈ 42.4 µM)
CO/N=C(\C(=O)N[C@@H]1C(=O)N2C(C(=O)[O-])=C(C[n+]3ccc(NC(C)=O)c4c3CCC4)CS[C@H]12)c1csc(N)n1 [Example 17, 7-β-[(Z)-2-(2-aminothiazol-4-yl)-2-methoxyiminoacetamido]-3-[(4-acetamido-2,3-cyclopenteno-1-pyridinium)methyl]-3-cephem-4-carboxylate]	< 2	< 2		781 (≈ 1370 µM)		25 (≈ 43.7 µM)	13 (≈ 22.7 µM)	13 (≈ 22.7 µM)	25 (≈ 43.7 µM)	25 (≈ 43.7 µM)	12500 (≈ 21900 µM)	6250 (≈ 10900 µM)	6250 (≈ 10900 µM)	1560 (≈ 2730 µM)	49 (≈ 85.7 µM)	13 (≈ 22.7 µM)	12500 (≈ 21900 µM)	13 (≈ 22.7 µM)		1560 (≈ 2730 µM)	MIC (Streptococcus faecium 8b; 8B, 18 h): 100000 µg/mL (≈ 175000 µM); MIC ([5]; Staphylococcus aureus, 503, 18 h): 195 µg/mL (≈ 341 µM)
CO/N=C(\C(=O)N[C@@H]1C(=O)N2C(C(=O)[O-])=C(C[n+]3ccc(NC=O)c4c3CCC4)CS[C@H]12)c1csc(N)n1 [Example 19]		< 2	25000 (≈ 44800 µM)	391 (≈ 701 µM)	98 (≈ 176 µM)	7 (≈ 12.6 µM)	13 (≈ 23.3 µM)	13 (≈ 23.3 µM)	49 (≈ 87.9 µM)	98 (≈ 176 µM)	12500 (≈ 22400 µM)	12500 (≈ 22400 µM)	12500 (≈ 22400 µM)	1560 (≈ 2800 µM)	195 (≈ 350 µM)	49 (≈ 87.9 µM)	12500 (≈ 22400 µM)	7 (≈ 12.6 µM)	< 2	391 (≈ 701 µM)	
